# Article PMC11091220, “Metabolism-driven in vitro/in vivo disconnect of an oral ERɑ VHL-PROTAC” (Communications Biology, 2024)
# Tests used:
# [1] = Mouse microsome intrinsic clearance; format: in vitro ADME
# Protocol: Mouse liver microsomes (Male CD-1) are obtained from Corning at a concentration of 20 mg/mL protein. The test compound was prepared to 10 mM in 100% DMSO and further diluted to 100 μM in 100% acetonitrile. The microsomal incubations were prepared in phosphate buffered solution pH 7.4 containing 1 mg/mL microsomal protein, 1 mM NADPH and a final compound concentration of 1 μM. Following a pre-incubation with NADPH for 8 min, reactions were initiated through the addition of the test compound (final volume 250 µL) and incubated at 37 °C in a water bath for 30 min. At each time point (0.5, 5, 10, 15, 20, 30 min) 20 μL of incubation mixture was quenched with 100 μL of 100% ice cold acetonitrile. Samples were shaken at 800 rpm for 2 min and centrifuged at 4000 rpm for 20 min at 4 °C to pellet precipitated protein. The supernatant fraction was diluted 1:5 with deionised water, shaken at 1000 rpm for 2 min, and further diluted 1:1 with deionised water. Samples were analysed by LC-MS/MS[17].
# [2] = Solution NMR hydrogen-bond donor shielding (A-NMR, temperature-dependent shift); format: physicochemical; conditions: N-terminal amide HBD of (S,R,S)-AHPC
# Description: 1. Supplementary Note 1: 3D Conformer of AZ’6421 (5) free in solution
# PROTACs are prone to intramolecular interactions that can substantially modify their drug-like properties.1 Here we used solution NMR spectroscopy to determine the 3D conformer of 5 free in solution. Initially, water/DMSO mixtures were utilised to enhance solubility of these highly lipophilic compounds in a relevant protic solvent. However, The 1D 1H-NMR signals of 5 in a mixture of DMSO […]
# pure DMSO was used for simplicity. By two 1D 1H-NMR based methods A-NMR2 and temperature- […]
# values are both indicative of HBD shielding, whereas the benzyl-amide NH donor of the VHL binding motif and the indole NH in the ERα binding substructure show values characteristic of solvent exposure. By 2D rotating-frame nuclear Overhauser effect (NOE) and 1H-13C long-range correlation (13C-HSQMBC) NMR spectroscopy we determined distance and tortional angle restraints for 3D structure calculation showing an intra-molecular H-bond to the ether oxygen proximal to the N-terminus of (S,R,S)-AHPC. Deletion of this ether oxygen from the N-terminus of (S,R,S)-AHPC produces a large chemical change of 0.6 ppm for the NH donor, whereas most other 1H signals remain unchanged (Figure S3). […]
# [3] = Metabolite identification in mouse hepatocytes; format: in vitro ADME; conditions: in vitro mouse hepatocytes
# Protocol: CD-1 male mouse hepatocytes (BioreclamationIVT, M005052, lot:LRH) were thawed and warmed to 37 °C using Lebovitz’s L-15 medium and Cell yield/cell density and viability were assessed by a Nexcelom cell counter.
# Incubations were conducted on a Hamilton robot, 0.25 mL of the hepatocyte suspension (1 million cells/mL) was transferred for each incubation into Nunc 96-deepwell plate. Substrate (2.5 µL of 0.5 mM in acetonitrile) was added (final concentration of 5 µM) and then incubated for 60 minutes at 37 °C. The samples were quenched with an equal volume of acetonitrile, spun at 3500 rpm for 10 minutes and 0.2 mL of the supernatant was transferred into 0.6 mL of water for analysis by UHPLC-UV-HRAMS.
compound,measurement,setting,value
Cc1ncsc1-c1ccc(CNC(=O)[C@@H]2C[C@@H](O)CN2C(=O)[C@@H](NC(=O)COCCCOCCCOc2cc(F)c([C@@H]3c4[nH]c5ccccc5c4C[C@@H](C)N3CC(C)(C)F)c(F)c2)C(C)(C)C)cc1 [Compound 5],mouse liver microsomes stability,[1],22 µL/min/mg protein
same,A-NMR value,[2],0.03
same,temperature-dependent perturbation,[2]; DMSO,-2.6 ppb/K
same,major metabolic liability,[3],formation of a carboxylic acid metabolite 8
